Experiments:
Assay in all cases: Test C pre-/postemergence herbicide test
Surinam grass = assay type: in vivo, Urochloa decumbens; details: for Surinam Grass plant response rating: Preemergence, 500 g ai/ha
In short: (§1)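 Visual ratings on a 0–100 scale (100 = complete control) made versus untreated controls after 12 to 14 greenhouse days. Test chemicals, formulated in surfactant-containing non-phytotoxic solvent, applied preemergence to planted seeds or postemergence to 1- to 4-leaf plants (2 to 18 cm).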

corn = assay type: in vivo, Zea mays; details: for Corn plant response rating: 500 g ai/ha
In short: as §1

woolly cupgrass = assay type: in vivo, Eriochloa villosa; details: for Cupgrass, Woolly plant response rating: 500 g ai/ha
In short: as §1

giant foxtail = assay type: in vivo, Setaria faberi; details: for Foxtail, Giant plant response rating: 500 g ai/ha
In short: as §1

lambsquarters = assay type: in vivo, Chenopodium album; details: for Lambsquarters plant response rating: 500 g ai/ha
In short: as §1

morningglory = assay type: in vivo, Ipomoea coccinea; set-up: key to Plant response rating, Morningglory: 0 = no effect, 100 = complete control; details: for Morningglory plant response rating: 500 g ai/ha
In short: as §1

yellow nutsedge = assay type: in vivo, Cyperus esculentus; details: for Nutsedge, Yellow plant response rating: Preemergence, 500 g ai/ha, scale 0 to 100, 0 no effect, 100 complete control
In short: as §1

[1] = tested on: common (oilseed) sunflower; assay type: in vivo, Helianthus annuus; details: for Sunflower plant response rating: Preemergence, 500 g ai/ha, scale 0 to 100, 0 no effect, 100 complete control
In short: as §1

[2] = 62 g ai/ha, preemergence, scale 0 to 100
[3] = 250 g ai/ha, scale 0-100, preemergence
[4] = postemergence, 62 g ai/ha, scale 0 to 100
[5] = Postemergence, 250 g ai/ha, scale 0 to 100, 0 no effect, 100 complete control
[6] = postemergence, 125 g ai/ha, scale 0 to 100
[7] = scale 0 to 100, 0 no effect, 100 complete control
[8] = Preemergence, scale 0 to 100, 0 no effect, 100 complete control
[9] = 125 g ai/ha, scale 0 (no effect) to 100 (complete control), visual, 12 to 14 days, preemergence
[10] = 250 g ai/ha, scale 0 to 100 (0 no effect, 100 complete control), visual, 12 to 14 days, preemergence
[11] = Postemergence, 125 g ai/ha, scale 0 to 100, 0 no effect, 100 complete control

CCOC(=O)c1cccc(NC(=O)c2nn(C(C)(C)CC)nc2CC)c1 [Compound 375]
Plant response rating, Surinam Grass (Surinam grass; [2]): 55 | Plant response rating (0 = no effect, 100 = complete control), Surinam Grass (Surinam grass; 125 g ai/ha, preemergence): 75 | Plant response rating, Surinam Grass (Surinam grass; [3]): 80 | Plant response rating, Surinam Grass (Surinam grass; [4]): 20 | Plant response rating, Corn (corn; [2]): 0 | Plant response rating (0 = no effect, 100 = complete control), Corn (corn; 125 g ai/ha, preemergence): 5 | Plant response rating, Corn (corn; [3]): 5 | Plant response rating, Corn (corn; [5]): 20 | Plant response rating, Corn (corn; [6]): 15 | Plant response rating, Corn (corn; [4]): 10 | Plant response rating, Cupgrass, Woolly (woolly cupgrass; [2]): 60 | Plant response rating (0 = no effect, 100 = complete control), Cupgrass, Woolly (woolly cupgrass; 125 g ai/ha, preemergence): 70 | Plant response rating, Cupgrass, Woolly (woolly cupgrass; [3]): 70 | Plant response rating, Cupgrass, Woolly (woolly cupgrass; [5]): 45 | Plant response rating, Cupgrass, Woolly (woolly cupgrass; [6]): 30 | Plant response rating, Cupgrass, Woolly (woolly cupgrass; [4]): 30 | Plant response rating, Foxtail, Giant (giant foxtail; [2]): 70 | Plant response rating (0 = no effect, 100 = complete control), Foxtail, Giant (giant foxtail; 125 g ai/ha, preemergence): 80 | Plant response rating, Foxtail, Giant (giant foxtail; [5]): 60 | Plant response rating, Foxtail, Giant (giant foxtail; [6]): 45 | Plant response rating, Foxtail, Giant (giant foxtail; [4]): 40 | Plant response rating, Lambsquarters (lambsquarters; [2]): 5 | Plant response rating (0 = no effect, 100 = complete control), Lambsquarters (lambsquarters; 125 g ai/ha, preemergence): 10 | Plant response rating, Lambsquarters (lambsquarters; [3]): 90 | Plant response rating, Lambsquarters (lambsquarters; [6]): 40 | Plant response rating, Lambsquarters (lambsquarters; [4]): 10 | Plant response rating, Morningglory (morningglory; [2]): 0 | Plant response rating (0 = no effect, 100 = complete control), Morningglory (morningglory; 125 g ai/ha, preemergence): 0 | Plant response rating, Morningglory (morningglory; [3]): 5 | Plant response rating, Morningglory (morningglory; [4]): 10 | Plant response rating, Nutsedge, Yellow (yellow nutsedge; 31 g ai/ha, scale 0 to 100, last section of Table C, preemergence): 0 | Plant response rating, Nutsedge, Yellow (yellow nutsedge; [2]): 0 | Plant response rating (0 = no effect, 100 = complete control), Nutsedge, Yellow (yellow nutsedge; 125 g ai/ha, preemergence): 0 | Plant response rating, Nutsedge, Yellow (yellow nutsedge; [3]): 0 | Plant response rating, Sunflower [1, 2]: 0 | Plant response rating (0 = no effect, 100 = complete control), Sunflower ([1]; 125 g ai/ha, preemergence): 0 | Plant response rating, Sunflower [1, 3]: 0

CCc1nn(C(C)(C)C)cc1C(=O)Nc1cccc(C(=O)N(CC)CC)c1 [Compound 182, N-[3-[(diethylamino)carbonyl]phenyl]-1-(1,1-dimethylethyl)-3-ethyl-1H-pyrazole-4-carboxamide]
Surinam Grass plant response rating (Surinam grass; [7]): 85 | pest or weed control at 62 g/ha (Surinam grass; Urochloa decumbens, pre-emergence, 312 h, 62 g ai/ha, preemergence, scale 0 to 100, read-out: Plant response rating, Surinam Grass): 0% | pest or weed control at 125 g/ha (Surinam grass; Urochloa decumbens, pre-emergence, 312 h, 125 g ai/ha, scale 0 (no effect) to 100 (complete control), visual, 12 to 14 days, read-out: Plant response rating, Surinam Grass): 20% | Corn plant response rating (corn; [8]): 0 | Corn plant response rating (crop injury, 0 = no effect, 100 = complete kill) at 62 g/ha (corn; Zea mays, pre-emergence, 312 h, 62 g ai/ha, preemergence, scale 0 to 100): 0% | Corn plant response rating (crop injury, 0 = no effect, 100 = complete kill) at 125 g/ha (corn; Zea mays, pre-emergence, 312 h, 125 g ai/ha, scale 0 (no effect) to 100 (complete control), visual, 12 to 14 days): 0% | Corn plant response rating (crop injury, 0 = no effect, 100 = complete kill) at 250 g/ha (corn; Zea mays, pre-emergence, 312 h, 250 g ai/ha, scale 0 to 100 (0 no effect, 100 complete control), visual, 12 to 14 days): 0% | pest or weed control at 62 g/ha (woolly cupgrass; Eriochloa villosa, pre-emergence, 312 h, 62 g ai/ha, preemergence, scale 0 to 100, read-out: Plant response rating, Cupgrass, Woolly): 0% | pest or weed control at 125 g/ha (woolly cupgrass; Eriochloa villosa, pre-emergence, 312 h, 125 g ai/ha, scale 0 (no effect) to 100 (complete control), visual, 12 to 14 days, read-out: Plant response rating, Cupgrass, Woolly): 0% | pest or weed control at 250 g/ha (woolly cupgrass; Eriochloa villosa, pre-emergence, 312 h, 250 g ai/ha, scale 0 to 100 (0 no effect, 100 complete control), visual, 12 to 14 days, read-out: Plant response rating, Cupgrass, Woolly): 0% | Cupgrass, Woolly plant response rating (woolly cupgrass; [8]): 0 | Foxtail, Giant plant response rating (giant foxtail; [8]): 60 | pest or weed control at 62 g/ha (giant foxtail; Setaria faberi, pre-emergence, 312 h, 62 g ai/ha, preemergence, scale 0 to 100, read-out: Plant response rating, Foxtail, Giant): 0% | pest or weed control at 125 g/ha (giant foxtail; Setaria faberi, pre-emergence, 312 h, 125 g ai/ha, scale 0 (no effect) to 100 (complete control), visual, 12 to 14 days, read-out: Plant response rating, Foxtail, Giant): 0% | pest or weed control at 250 g/ha (giant foxtail; Setaria faberi, pre-emergence, 312 h, 250 g ai/ha, scale 0 to 100 (0 no effect, 100 complete control), visual, 12 to 14 days, read-out: Plant response rating, Foxtail, Giant): 60% | pest or weed control at 62 g/ha (lambsquarters; Chenopodium album, pre-emergence, 62 g ai/ha, preemergence, scale 0 to 100, read-out: Plant response rating, Lambsquarters): 25% | pest or weed control at 125 g/ha (lambsquarters; Chenopodium album, pre-emergence, 125 g ai/ha, scale 0 (no effect) to 100 (complete control), visual, 12 to 14 days, read-out: Plant response rating, Lambsquarters): 95% | Lambsquarters plant response rating (lambsquarters; [8]): 95 | pest or weed control at 62 g/ha (morningglory; Ipomoea, pre-emergence, 62 g ai/ha, preemergence, scale 0 to 100, read-out: Plant response rating, Morningglory): 0% | pest or weed control at 125 g/ha (morningglory; Ipomoea, pre-emergence, 125 g ai/ha, scale 0 (no effect) to 100 (complete control), visual, 12 to 14 days, read-out: Plant response rating, Morningglory): 15% | Morningglory plant response rating (morningglory; [8]): 100 | pest or weed control at 62 g/ha (yellow nutsedge; Cyperus, pre-emergence, 62 g ai/ha, preemergence, scale 0 to 100, read-out: Plant response rating, Nutsedge, Yellow): 0% | pest or weed control at 125 g/ha (yellow nutsedge; Cyperus, pre-emergence, 125 g ai/ha, scale 0 (no effect) to 100 (complete control), visual, 12 to 14 days, read-out: Plant response rating, Nutsedge, Yellow): 0% | Nutsedge, Yellow plant response rating (yellow nutsedge): 0 | pest or weed control at 62 g/ha ([1]; Helianthus annuus, pre-emergence, 62 g ai/ha, preemergence, scale 0 to 100, read-out: Plant response rating, Sunflower): 0% | pest or weed control at 125 g/ha ([1]; Helianthus annuus, pre-emergence, 125 g ai/ha, scale 0 (no effect) to 100 (complete control), visual, 12 to 14 days, read-out: Plant response rating, Sunflower): 0% | Sunflower plant response rating [1]: 0

C#CCn1nc(C(C)(C)C)cc1C(=O)Nc1cccc(C(=O)NCC)c1 [Compound 50]
Plant response rating (0 = no effect, 100 = complete control), Surinam Grass (Surinam grass; 62 g ai/ha, preemergence): 0 | Plant response rating, Surinam Grass (Surinam grass; [9]): 10 | Plant response rating, Surinam Grass (Surinam grass; [10]): 80 | Plant response rating, Surinam Grass (Surinam grass; [5]): 50 | Surinam Grass plant response rating (Surinam grass; [7]): 85 | Plant response rating, Surinam Grass (Surinam grass; [4]): 10 | Plant response rating (0 = no effect, 100 = complete control), Corn (corn; 62 g ai/ha, preemergence): 0 | Plant response rating, Corn (corn; [9]): 0 | Plant response rating, Corn (corn; [10]): 0 | Corn plant response rating (corn; Postemergence, scale 0 to 100): 85 | Plant response rating, Corn (corn; [11]): 80 | Plant response rating, Corn (corn; [5]): 85 | Corn plant response rating (corn; [8]): 10 | Plant response rating, Corn (corn; [4]): 20 | Plant response rating (0 = no effect, 100 = complete control), Cupgrass, Woolly (woolly cupgrass; 62 g ai/ha, preemergence): 0 | Plant response rating, Cupgrass, Woolly (woolly cupgrass; [9]): 10 | Plant response rating, Cupgrass, Woolly (woolly cupgrass; [10]): 30 | Cupgrass, Woolly plant response rating (woolly cupgrass; Postemergence, scale 0 to 100): 0 | Plant response rating, Cupgrass, Woolly (woolly cupgrass; [11]): 0 | Plant response rating, Cupgrass, Woolly (woolly cupgrass; [5]): 0 | Cupgrass, Woolly plant response rating (woolly cupgrass; [8]): 70 | Plant response rating, Cupgrass, Woolly (woolly cupgrass; [4]): 0 | Plant response rating (0 = no effect, 100 = complete control), Foxtail, Giant (giant foxtail; 62 g ai/ha, preemergence): 0 | Plant response rating, Foxtail, Giant (giant foxtail; [9]): 0 | Plant response rating, Foxtail, Giant (giant foxtail; [10]): 0 | Foxtail, Giant plant response rating (giant foxtail; Postemergence, scale 0 to 100): 0 | Plant response rating, Foxtail, Giant (giant foxtail; [11]): 0 | Plant response rating, Foxtail, Giant (giant foxtail; [5]): 0 | Foxtail, Giant plant response rating (giant foxtail; [8]): 10 | Plant response rating, Foxtail, Giant (giant foxtail; [4]): 0 | Plant response rating (0 = no effect, 100 = complete control), Lambsquarters (lambsquarters; 62 g ai/ha, preemergence): 85 | Plant response rating, Lambsquarters (lambsquarters; [9]): 85 | Plant response rating, Lambsquarters (lambsquarters; [10]): 100 | Lambsquarters plant response rating (lambsquarters; Postemergence, scale 0 to 100): 0 | Plant response rating, Lambsquarters (lambsquarters; [5]): 0 | Lambsquarters plant response rating (lambsquarters; [8]): 100 | Plant response rating, Lambsquarters (lambsquarters; [4]): 0 | Plant response rating (0 = no effect, 100 = complete control), Morningglory (morningglory; 62 g ai/ha, preemergence): 0 | Plant response rating, Morningglory (morningglory; [9]): 0 | Plant response rating, Morningglory (morningglory; [10]): 0 | Morningglory plant response rating (morningglory; Postemergence, scale 0 to 100): 10 | Plant response rating, Morningglory (morningglory; [5]): 0 | Morningglory plant response rating (morningglory; [8]): 0 | Plant response rating, Morningglory (morningglory; [4]): 0 | Plant response rating (0 = no effect, 100 = complete control), Nutsedge, Yellow (yellow nutsedge; 62 g ai/ha, preemergence): 0 | Plant response rating, Nutsedge, Yellow (yellow nutsedge; [9]): 10 | Plant response rating, Nutsedge, Yellow (yellow nutsedge; [10]): 40 | Nutsedge, Yellow plant response rating (yellow nutsedge): 80 | Plant response rating (0 = no effect, 100 = complete control), Sunflower ([1]; 62 g ai/ha, preemergence): 0 | Plant response rating, Sunflower [1, 9]: 0 | Plant response rating, Sunflower [1, 10]: 0 | Sunflower plant response rating [1]: 0

Source: US20060069132A1, “Azolecarboxamide herbicides” (priority 2004, published 2006)
